# Results as given in patent US20130261066A1, “TREATMENT OF INFLAMMATORY BOWEL DISEASES USING A TRIPEPTIDE” (THE RESEARCH FOUNDATION OF STATE UNIVERSITY OF NEW YORK, priority 2010, published 2013).
# Entries after “also recorded” stand apart in the source; their conditions may differ.
# Legend:
# Assay type in all cases: in vivo
# [1] = tested on: TNBS-induced colitis; experiment: TNBS-induced colitis (experimental Crohn's disease) in SJL/J mice
# Description: TNBS (2,4,6-trinitro benzene sulfonic acid) induces a form of colitis in SJL/J mice that recapitulates Crohn's disease. The optimal dose of TNBS was determined to be 100 μl of a 2.5% ethanolic solution instilled intracolonically. SJL mice received 2.5% TNBS solution in 50% ethanol by intra-colonic instillation using a 3.5 F catheter, which was inserted 4 cm into the colon under mild ketamine/xylazine anesthesia. Mice received MC-12 25 mg/kg or vehicle ip twice a day for two days. Body weight was monitored daily and mice were euthanized on the third day when blood and colon tissues were collected as described above for further analysis.
# The fixed colon was cut into six equal fragments, dehydrated and embedded into paraffin. The tissue sections were stained with hematoxylin and eosin (H&E). The histological score was determined by two pathologists as described, based on the degree (0-3) and extent (0-3) of inflammation, crypt damage (0-4) and the area involved (0-4). The scores of each of the first three parameters were multiplied by the fourth and the sum of these three multiples was the final score (ranging from 0 to 40).
# [2] = tested on: cytosolic phospholipase A2 (cPLA2); experiment: cPLA2 activity in colon tissue of DSS-treated mice
# Excerpt: cPLA2 enzymes release fatty acids from the second carbon group of glycerol. This particular phospholipase specifically recognizes the sn-2 acyl bond of phospholipids and catalytically hydrolyzes the bond releasing a lysopospholipid and arachidonic acid; the latter is then modified by cyclooxygenases into active compounds called eicosanoids by cyclooxygenases. Eicosanoids include prostaglandins and leukotrienes which are categorized as inflammatory mediators. […] Treatment with MC12 decreased cPLA2 activity by 18% at 40 μg and 26% at the dose of 80 μg (p<0.05).
# We also determined the activity of cytosolic phospholipase A2 (cPLA2) in colonic tissues from study mice. cPLA2s are enzymes that release fatty acids from the second carbon group of glycerol. This particular […] specifically recognizes the sn-2 acyl bond of phospholipids and catalytically hydrolyzes the bond releasing arachidonic acid and lysophospholipids, which are then modified into active compounds called eicosanoids by cyclooxygenases. Eicosanoids include prostaglandins and leukotrienes which are categorized as inflammatory mediators.
# A cPLA2 assay kit (Cayman, Ann Arbor, Mich.) was used to determine cPLA2 activity following the instructions of the manufacturer. Briefly, a portion of colon tissue was homogenized in cold PBS and centrifuged at 10,000×g for 15 minutes and 10 μl of supernatant from each sample and 5 μl assay buffer were added into a 96-well microplate. The reaction was initialized by adding 200 μl substrate solutions to all wells and incubating for 5 min at room temperature. The fluorescence intensity was measured using a Multiplate Reader (Molecular Devices) at excitation at 485 nm, emission at 530 nm.
# [3] = tested on: NF-κB; experiment: Phospho-NF-κB p65 immunohistochemistry of colonic mucosa, DSS mice; conditions: for NF-κB activation / nuclear translocation in colonic mucosa: MC-12 5 and 25 mg/kg, ip and po
# Excerpt: NF-κB is the master regulator of inflammation, controlling the transcription of many genes related to this complex process. It is also the molecular target of the activity of MC 12. Therefore, we determined by immunohistochemistry the level of NF-κB activation in the colonic mucosa of our four study groups of mice. There was minimum or […] activation of NF-κB in the colon of control animals (FIG. 4A). DSS, as expected, activated NF-κB in both colonic crypts and stromal cells (FIG. 4B).
# The level of NF-κB activation in the colonic mucosa was determined by immunohistochemistry (FIG. 9). NF-κB is the molecular target of MC-12. Immunohistochemical staining for phospho-NF-κB (activate form of NF-κB) was performed on the colon tissue samples. Briefly, paraffin-embedded sections (4 μm thick) were deparaffinized, rehydrated, and microwave heated for 15 minutes in 0.01 mol/L citric acid buffer (pH 6.0) for antigen retrieval. Then, 3% hydrogen peroxide was applied to block endogenous peroxidase activity. After 30 minutes of blocking with normal serum (Invitrogen, Carlsbad, Calif.), the primary rabbit anti-phospho-NF-κB p65 antibody (Cell Signaling) or corresponding control isotype IgG were applied and incubated overnight at 4° C. Slides were washed thrice with PBS, each for 5 minutes. The biotinylated secondary antibody and the streptavidin-biotin complex were applied, each for 60 minutes incubation and following a thrice-wash at room temperature. After rinsing with PBS, the slides were immersed for 10 minutes in 3,3′-diaminobenzidine (Sigma, St. Louis, Mo.) solution (0.4 mg/mL, with 0.003% hydrogen peroxide), monitored under microscope. The reactions were stopped with distilled water. The slides were counterstained with hematoxylin, dehydrated, and coverslipped. Five photos per section were taken and the positive luminosity was evaluated using PhotoShop program.
substance,measurement,setting,value
Gln-Ala-Trp (QAW) [MC12],inflammatory cell infiltration and crypt loss (histology),[1]; 25 mg/kg bid for 2 d,decreased the inflammatory cell infiltration and crypt loss
same,TNBS-caused shortening of colon length,[1]; 25 mg/kg ip bid 2 d,did not prevent this effect
same,reduction of body weight on day 3 compared to baseline,"[1]; 25 mg/kg ip bid 2 d, TNBS alone 18.2%",15.3%
same,histological score (mean±SEM),"[1]; 25 mg/kg ip bid 2 d, TNBS control 38.3±1.7, scale 0 to 40",23.3±3.3
same,reduction of histological score compared to TNBS control,"[1]; 25 mg/kg ip bid 2 d, p<0.01",39.1%
same,prevention of weight loss,[1]; 25 mg/kg ip twice a day for two days,did not prevent weight loss
same,decrease of cPLA2 activity,[2]; MC12 40 μg,18%
same,decrease of cPLA2 activity,"[2]; MC12 80 μg, p<0.05",26%
same,decrease of cPLA2 activity,[2]; MC-12 5 mg/kg,18%
same,decrease of cPLA2 activity,"[2]; MC-12 25 mg/kg, p<0.05",24%
same,NF-κB activation in colonic mucosa,[3]; MC12 40 and 80 μg ip,less NF-κB nuclear translocation; also recorded: markedly decreased this effect of DSS
same,NF-κB activation / nuclear translocation in colonic mucosa,[3]; listed as MC 12,marked decrease of NF-κB nuclear translocation
same,NF-κB activation / nuclear translocation in colonic mucosa,[3]; listed as MC-12,markedly decreased this effect of DSS in a clear dose-dependent manner
same,NF-κB activation in colonic mucosa,[3]; highest dose 25 mg/kg,essentially normalizing it
